Test results: patent publication US20240132480A1, “INHIBITORS OF MYCOBACTERIUM TUBERCULOSIS LIPOAMIDE DEHYDROGENASE” (Cornell University, priority 2021, published 2024)
Read-outs that look alike come from different tables or passages of the source.

How the values were obtained:
[1] = microsomes
[2] = molecular target: Mtb Lpd (Mycobacterium tuberculosis (strain ATCC 25618 / H37Rv), UniProt P9WHH9); type: biochemical
[3] = 30 min preincubation, read-out: LPD IC50 (μM) w/ 30 min preincubation

## COc1ccc(NC(=O)CN(C)S(=O)(=O)c2cc(C)cc3c2NC(=O)C3)cc1Cl [Example 2, N-(3-chloro-4-methoxyphenyl)-2-((N,5-dimethyl-2-oxoindoline)-7-sulfonamido)acetamide]
[1]
  Human Liver Microsome Stability: 490 µL/min/mg

## Cc1cc(S(=O)(=O)N(C)CC(=O)Nc2ccn(C)c(=O)c2)c2[nH]ncc2c1 [Example 6]
[1]
  Human Liver Microsome Stability: -11 µL/min/mg

## Cc1cc(S(=O)(=O)N2CCC[C@H]2C(=O)Nc2ccn(C)c(=O)c2)c2[nH]ncc2c1 [Example 7]
[2]; read-out: LPD IC50
  IC50: 0.0513 µM
[1]
  Human Liver Microsome Stability: 18 µL/min/mg

## COc1ccc(NC(=O)CN(C)S(=O)(=O)c2cc(C(F)F)cc3cn[nH]c23)cc1C [Example 8]
[2]; read-out: LPD IC50
  IC50: 0.0263 µM
[1]
  Human Liver Microsome Stability: 534 µL/min/mg

## COc1ccc(NC(=O)CN(C)S(=O)(=O)c2cc(C)cc3c(C)n[nH]c23)cc1C [Example 9]
[2]; read-out: LPD IC50
  IC50: 0.0273 µM
[1]
  Human Liver Microsome Stability: >768 µL/min/mg

## Cc1cc2c(c(S(=O)(=O)N(C)CC(=O)Nc3ccc(N4CCCCC4)c(C)c3)c1)CC=C2 [Example 11]
[2]; read-out: LPD IC50
  IC50: 0.0341 µM
[1]
  Human Liver Microsome Stability: 105 µL/min/mg

## CCn1ccc(NC(=O)CN(C)S(=O)(=O)c2cc(C)cc3cn[nH]c23)cc1=O [Example 14, 2-((N,5-dimethyl-1H-indazole)-7-sulfonamido)-N-(1-ethyl-2-oxo-1,2-dihydropyridin-4-yl)acetamide]
[2]; read-out: LPD IC50
  IC50: 0.0531 µM
[1]
  Human Liver Microsome Stability: -12 µL/min/mg

## CCN(CC(=O)Nc1ccc(OC)c(Cl)c1)S(=O)(=O)c1cc(C)cc2cn[nH]c12 [Example 15, N-(3-chloro-4-methoxyphenyl)-2-((N-ethyl-5-methyl-1H-indazole)-7-sulfonamido)acetamide]
[2]; read-out: LPD IC50
  IC50: 0.0417 µM
[1]
  Human Liver Microsome Stability: 528 µL/min/mg

## Cc1cc(S(=O)(=O)N(C)CC(=O)Nc2ccn(C(C)C)c(=O)c2)c2[nH]ncc2c1 [Example 16]
[2]; read-out: LPD IC50
  IC50: 0.0508 µM
[1]
  Human Liver Microsome Stability: 35 µL/min/mg

## Cc1cc(NC(=O)CN(C)S(=O)(=O)c2c(C)c(C)cc3cn[nH]c23)ccc1N1CCOCC1 [Example 19]
[2]; read-out: LPD IC50
  IC50: 0.0469 µM
[1]
  Human Liver Microsome Stability: 253 µL/min/mg

## CCc1ccc(NC(=O)CN(C)S(=O)(=O)c2cc(C)cc3cc[nH]c23)cc1C [Example 21]
[2]; read-out: LPD IC50
  IC50: 0.136 µM
[1]
  Human Liver Microsome Stability: 328 µL/min/mg

## Cc1cc(S(=O)(=O)N(C)CC(=O)Nc2ccn(C)c(=O)c2)c2[nH]ccc2c1 [Example 23]
[2]; read-out: LPD IC50
  IC50: 0.0993 µM
[1]
  Human Liver Microsome Stability: 19 µL/min/mg

## Cc1cc(S(=O)(=O)N(C)CC(=O)Nc2ccn3nccc3c2)c2[nH]ncc2c1 [Example 25]
[2]; read-out: LPD IC50
  IC50: 0.0204 µM
[1]
  Human Liver Microsome Stability: 275 µL/min/mg

## Cc1cc(S(=O)(=O)N(C)CC(=O)Nc2ccn3ccnc3c2)c2[nH]ncc2c1 [Example 26]
[2]; read-out: LPD IC50
  IC50: 0.0628 µM
[1]
  Human Liver Microsome Stability: 154 µL/min/mg

## Cc1cc(S(=O)(=O)N2CC[C@H]2C(=O)Nc2ccn(C)c(=O)c2)c2[nH]ncc2c1 [Example 27, (S)-1-((5-methyl-1H-indazol-7-yl)sulfonyl)-N-(1-methyl-2-oxo-1,2-dihydropyridin-4-yl)azetidine-2-carboxamide]
[2]; read-out: LPD IC50
  IC50: 0.0545 µM
[1]
  Human Liver Microsome Stability: -8 µL/min/mg

## CCN(CC(=O)Nc1ccc2c(c1)OCCN2C)S(=O)(=O)c1cc(C)cc2cn[nH]c12 [Example 88]
[1]
  Human Liver Microsome Stability: 46 µL/min/mg

## CC(=O)N1CCOc2cc(NC(=O)CN(C)S(=O)(=O)c3cc(C)cc4cn[nH]c34)ccc21 [Example 90]
[1]
  Human Liver Microsome Stability: 18 µL/min/mg

## Cc1cc(S(=O)(=O)N(C)CC(=O)Nc2ccc3c(c2)OCCN3C)c2[nH]nc(C)c2c1 [Example 92]
[1]
  Human Liver Microsome Stability: 19 µL/min/mg

## CN(CC(=O)Nc1ccn(C)c(=O)c1)S(=O)(=O)c1cc(F)cc2cn[nH]c12 [Example 93]
[1]
  Human Liver Microsome Stability: 6 µL/min/mg

## Cc1cc(S(=O)(=O)N2CC[C@H]2C(=O)NC2CCCN(C)C2)c2[nH]ncc2c1 (some centres unmarked) [Example 135-S]
[2]; read-out: LPD IC50
  IC50: 5.87 µM

## Cc1cc(S(=O)(=O)N(C)CC(=O)Nc2nc3c(s2)CCN(C)C3)c2n[nH]cc2c1 [Example 137, 2-(N,5-dimethyl-1H-indazole-7-sulfonamido)-N-(5-methyl-4,5,6,7-tetrahydrothiazolo[4,5-c]pyridin-2-yl)acetamide]
[2]; read-out: LPD IC50
  IC50: 0.025 µM

## Cc1cc(S(=O)(=O)N2CC[C@H]2C(=O)NC2CCc3ccccc32)c2[nH]ncc2c1 (some centres unmarked) [Example 138]
[2]; read-out: LPD IC50
  IC50: > 10 µM

## Cc1cc(S(=O)(=O)N2CC[C@H]2C(=O)N[C@H]2CCCOC2)c2[nH]ncc2c1 [Example 141, (2S)-1-[(5-methyl-1H-indazol-7-yl)sulfonyl]-N-[(3S)-tetrahydropyran-3-yl]azetidine-2-carboxamide]
[2]; read-out: LPD IC50
  IC50: 0.811 µM

## Cc1cc(S(=O)(=O)N2CC[C@H]2C(=O)N[C@@H]2CCCOC2)c2[nH]ncc2c1 [Example 142, (2S)-1-[(5-methyl-1H-indazol-7-yl)sulfonyl]-N-[(3R)-tetrahydropyran-3-yl]azetidine-2-carboxamide]
[2]; read-out: LPD IC50
  IC50: 0.47 µM

## Cc1cc(S(=O)(=O)N(C)CC(=O)Nc2nc3c(s2)NCCC3)c2n[nH]cc2c1 [Example 154, 2-((N,5-dimethyl-1H-indazole)-7-sulfonamido)-N-(4,5,6,7-tetrahydrothiazolo[5,4-b]250yclopro-2-yl)acetamide]
[2]; read-out: LPD IC50
  IC50: 0.05 µM

## CCN(CC(=O)Nc1ccc2c(c1)OCCN2C1COC1)S(=O)(=O)c1cc(C)cc2c[nH]nc12 [Example 155]
[2]; read-out: LPD IC50
  IC50: 0.0246 µM

## Cc1cc(S(=O)(=O)N(C)CC(=O)Nc2ccc3c(c2)OCCN3C(C)C)c2n[nH]cc2c1 [Example 157]
[2]; read-out: LPD IC50
  IC50: 0.014 µM

## CN(CC(=O)Nc1ccn(C)c(=O)c1)S(=O)(=O)c1cc(C2(O)CC2)cc2cn[nH]c12 [Example 172, 2-((5-(1-hydroxycyclopropyl)-N-methyl-1H-indazole)-7-sulfonamido)-N-(1-methyl-2-oxo-1,2-dihydropyridin-4-yl)acetamide]
[2]; read-out: LPD IC50
  IC50: 0.654 µM

## O=C(Nc1ccc2c(c1)OCCN2C1COC1)[C@@H]1CCN1S(=O)(=O)c1cc(C(F)F)cc2cn[nH]c12 [Example 180, (S)-1-((5-(difluoromethyl)-1H-indazol-7-yl)sulfonyl)-N-(4-(oxetan-3-yl)-3,4-dihydro-2H-benzo[b][1,4]oxazin-7-yl)azetidine-2-carboxamide]
[1]
  Human Liver Microsome Stability: 61 µL/min/mg

## Cc1cc(S(=O)(=O)N(C)CC(=O)Nc2ccn(C)c(=O)c2)c2[nH]nc(C#N)c2c1 [Example 182, 2-((3-cyano-N,5-dimethyl-1H-indazole)-7-sulfonamido)-N-(1-methyl-2-oxo-1,2-dihydropyridin-4-yl)acetamide]
[2]; read-out: LPD IC50
  IC50: 0.724 µM

## CC#CCNC(=O)CN(C)S(=O)(=O)c1cc(C)cc2cc(C#N)[nH]c12 [Example 210]
[1]
  Human Liver Microsome Stability: 39 µL/min/mg

## Cc1cc(S(=O)(=O)N2CCC(C(=O)Nc3ccn(C)c(=O)c3)C2)c2[nH]ncc2c1 (centres unmarked) [Example 213]
[2]; read-out: LPD IC50
  IC50: 1.92 µM

## Cc1cc(S(=O)(=O)N(C)CC(=O)Nc2ccn3nccc3c2)c2[nH]c(C#N)cc2c1 [Example 220]
[2]; [3]
  IC50: 0.019 µM

## Cc1cc(S(=O)(=O)N(C)CC(=O)Nc2ccc3c(c2)CCCO3)c2[nH]c(C#N)cc2c1 [Example 221]
[2]; [3]
  IC50: 0.015 µM

## Cc1cc(S(=O)(=O)N(C)CC(=O)Nc2cc(=O)n(C)cn2)c2[nH]c(C#N)cc2c1 [Example 222]
[2]; [3]
  IC50: 0.027 µM

## CC#CCN(C)C(=O)CN(C)S(=O)(=O)c1cc(C)cc2cc(C#N)[nH]c12 [Example 226]
[2]; [3]
  IC50: 0.368 µM

## C/C=C/CNC(=O)CN(C)S(=O)(=O)c1cc(C)cc2cc(C#N)[nH]c12 [Example 227]
[2]; [3]
  IC50: 0.018 µM
